Assay results from patent US20090018111A1, “Novel Antimicrobial Medicament” (priority 2004, published 2009).
Like-named read-outs stand apart in the source and are kept apart here.

Tests used:
Test in all cases: Sensitivity test (agar dilution), clinical isolate
Acinetobacter spp. 1195 = assay type: cell-based, Acinetobacter calcoaceticus and Acinetobacter lwoffi; details: read-out: MIC
Procedure: (§1) In addition, the antibacterial activities were tested against strains which are comparatively less sensitive to β-lactam compounds, namely clinically isolated 13 strains of Acinetobacter calcoaceticus and Acinetobacter lwoffi, clinically isolated 11 strains of Serratia marcescens, clinically isolated 12 strains of Burkholderia cepacia, and clinically isolated 15 strains of Pseudomonas aeruginosa.
(§2) According to the standard method of Japan Chemotherapeutic Society (Chemotherapy, vol. […], p 76-79 (1981)) the test was carried out using the agar dilution method. After dissolving test samples in distilled water, agar medium containing the test samples was prepared in such a manner that the final concentration became twice serial dilution by pouring serially diluted combination drug solution or a single drug solution into agar medium. As agar medium was used Mueller Hinton Agar medium (MHA). Then, each strain was cultivated over night at 37° C. in an incubator and suspended in buffered saline solution with gelatin (BSG) in the concentration of about 10^6 CFU/ml. The suspension (about 5 μl) containing test strains was inoculated to the medium containing the test samples by Micro Planter.
(§3) Each drug was weighed, and dissolved in distilled water to give a test sample. When the drugs are used in combination, two kinds of solution containing each drug were mixed so as to be various ratio of concentration to give a mixed solution. When the sample is subjected to sensitivity test, this mixed solution was diluted by twice serial dilution method.
(§4) Furthermore, when the drug is solely used, each test sample was used as it is, and diluted by twice serial dilution method from the maximum concentration to the minimum concentration.

Acinetobacter spp. 175 = assay type: cell-based, Acinetobacter calcoaceticus and Acinetobacter lwoffi; details: Acinetobacter, read-out: MIC
Procedure: as §1, §2, §3, §4

Acinetobacter spp. 1198 = assay type: cell-based, Acinetobacter calcoaceticus and Acinetobacter lwoffi; details: read-out: MIC
Procedure: as §1, §2, §3, §4

B. cepacia 7438 = assay type: cell-based, Burkholderia cepacia
Procedure: as §1, §2, §3, §4

B. cepacia 1892324 = assay type: cell-based, Burkholderia cepacia
Procedure: as §1, §2, §3, §4

B. cepacia 14607 = assay type: cell-based, Burkholderia cepacia
Procedure: as §1, §2, §3, §4

B. cepacia 1993527 = assay type: cell-based, Burkholderia cepacia
Procedure: as §1, §2, §3, §4

B. cepacia 14300 = assay type: cell-based, Burkholderia cepacia
Procedure: as §1, §2, §3, §4

B. cepacia 14427 = assay type: cell-based, Burkholderia cepacia
Procedure: as §1, §2, §3, §4

B. cepacia 14429 = assay type: cell-based, Burkholderia cepacia
Procedure: as §1, §2, §3, §4

B. cepacia 3138 = assay type: cell-based, Burkholderia cepacia
Procedure: as §1, §2, §3, §4

B. cepacia 14428 = assay type: cell-based, Burkholderia cepacia
Procedure: as §1, §2, §3, §4

B. cepacia 7247 = assay type: cell-based, Burkholderia cepacia
Procedure: as §1, §2, §3, §4

B. cepacia 14430 = assay type: cell-based, Burkholderia cepacia
Procedure: as §1, §2, §3, §4

B. cepacia 257-1 = assay type: cell-based, Burkholderia cepacia
Procedure: as §1, §2, §3, §4

## C[C@H]1C=C(c2csc(SC3=C(C(=O)O)N4C(=O)[C@H]([C@@H](C)O)[C@H]4[C@H]3C)n2)CN1 [SM, (4R,5S,6S)-6-[(1R)-1-Hydroxyethyl]-4-methyl-3-({4-[(5S)-5-methyl-2,5-dihydro-1H-pyrrol-3-yl]-1,3-thiazol-2-yl}sulfanyl)-7-oxo-1-azabicyclo[3.2.0]hept-2-ene-2-carboxylic acid]
Acinetobacter spp. 1195; SPP.1195, Concomitant (ME:SM = 1:1)
  MIC: 0.25 µg/mL
Acinetobacter spp. 1195; SPP.1195, Concomitant (ME:SM = 1:2)
  MIC: 0.25 µg/mL
Acinetobacter spp. 1195; SPP.1195, Concomitant (ME:SM = 1:4)
  MIC: 0.25 µg/mL
Acinetobacter spp. 1195; SPP.1195, Concomitant (ME:SM = 2:1)
  MIC: 0.125 µg/mL
Acinetobacter spp. 1195; SPP.1195, alone
  MIC: 0.5 µg/mL
Acinetobacter spp. 175; SPP.175, Concomitant (ME:SM = 1:1)
  MIC: 0.125 µg/mL
Acinetobacter spp. 175; SPP.175, Concomitant (ME:SM = 1:2)
  MIC: 0.125 µg/mL
Acinetobacter spp. 175; SPP.175, Concomitant (ME:SM = 1:4)
  MIC: 0.25 µg/mL
Acinetobacter spp. 175; SPP.175, Concomitant (ME:SM = 2:1)
  MIC: 0.063 µg/mL
Acinetobacter spp. 175; SPP.175, alone
  MIC: 0.5 µg/mL
Acinetobacter spp. 1198; SPP.1198, Concomitant (ME:SM = 1:1)
  MIC: 0.25 µg/mL
Acinetobacter spp. 1198; SPP.1198, Concomitant (ME:SM = 1:2)
  MIC: 0.25 µg/mL
Acinetobacter spp. 1198; SPP.1198, Concomitant (ME:SM = 1:4)
  MIC: 0.25 µg/mL
Acinetobacter spp. 1198; SPP.1198, Concomitant (ME:SM = 2:1)
  MIC: 0.125 µg/mL
Acinetobacter spp. 1198; SPP.1198, alone
  MIC: 0.5 µg/mL
B. cepacia 7438; Burkholderia cepacia, 7438, Concomitant (ME:SM = 1:1)
  MIC: 2 µg/mL
B. cepacia 7438; Burkholderia cepacia, 7438, Concomitant (ME:SM = 1:2)
  MIC: 2 µg/mL
B. cepacia 7438; Burkholderia cepacia, 7438, Concomitant (ME:SM = 1:4)
  MIC: 8 µg/mL
B. cepacia 7438; Burkholderia cepacia, 7438, Concomitant (ME:SM = 2:1)
  MIC: 1 µg/mL
B. cepacia 7438; Burkholderia cepacia, 7438, alone
  MIC: 16 µg/mL
B. cepacia 1892324; Burkholderia cepacia, 1892324, Concomitant (ME:SM = 1:1)
  MIC: 1 µg/mL
B. cepacia 1892324; Burkholderia cepacia, 1892324, Concomitant (ME:SM = 1:2)
  MIC: 2 µg/mL
B. cepacia 1892324; Burkholderia cepacia, 1892324, Concomitant (ME:SM = 1:4)
  MIC: 2 µg/mL
B. cepacia 1892324; Burkholderia cepacia, 1892324, Concomitant (ME:SM = 2:1)
  MIC: 1 µg/mL
B. cepacia 1892324; Burkholderia cepacia, 1892324, alone
  MIC: 4 µg/mL
B. cepacia 14607; Burkholderia cepacia, 14607, Concomitant (ME:SM = 1:1)
  MIC: 1 µg/mL
B. cepacia 14607; Burkholderia cepacia, 14607, Concomitant (ME:SM = 1:2)
  MIC: 1 µg/mL
B. cepacia 14607; Burkholderia cepacia, 14607, Concomitant (ME:SM = 1:4)
  MIC: 2 µg/mL
B. cepacia 14607; Burkholderia cepacia, 14607, Concomitant (ME:SM = 2:1)
  MIC: 0.5 µg/mL
B. cepacia 14607; Burkholderia cepacia, 14607, alone
  MIC: 4 µg/mL
B. cepacia 1993527; Burkholderia cepacia, 1993527, Concomitant (ME:SM = 1:1)
  MIC: 1 µg/mL
B. cepacia 1993527; Burkholderia cepacia, 1993527, Concomitant (ME:SM = 1:2)
  MIC: 2 µg/mL
B. cepacia 1993527; Burkholderia cepacia, 1993527, Concomitant (ME:SM = 1:4)
  MIC: 8 µg/mL
B. cepacia 1993527; Burkholderia cepacia, 1993527, Concomitant (ME:SM = 2:1)
  MIC: 1 µg/mL
B. cepacia 1993527; Burkholderia cepacia, 1993527, alone
  MIC: 8 µg/mL
B. cepacia 14300; Burkholderia cepacia, 14300, Concomitant (ME:SM = 1:1)
  MIC: 0.5 µg/mL
B. cepacia 14300; Burkholderia cepacia, 14300, Concomitant (ME:SM = 1:2)
  MIC: 1 µg/mL
B. cepacia 14300; Burkholderia cepacia, 14300, Concomitant (ME:SM = 1:4)
  MIC: 1 µg/mL
B. cepacia 14300; Burkholderia cepacia, 14300, Concomitant (ME:SM = 2:1)
  MIC: 0.25 µg/mL
B. cepacia 14300; Burkholderia cepacia, 14300, alone
  MIC: 2 µg/mL
B. cepacia 14427; Burkholderia cepacia, 14427, Concomitant (ME:SM = 1:1)
  MIC: 1 µg/mL
B. cepacia 14427; Burkholderia cepacia, 14427, Concomitant (ME:SM = 1:2)
  MIC: 1 µg/mL
B. cepacia 14427; Burkholderia cepacia, 14427, Concomitant (ME:SM = 1:4)
  MIC: 2 µg/mL
B. cepacia 14427; Burkholderia cepacia, 14427, Concomitant (ME:SM = 2:1)
  MIC: 0.5 µg/mL
B. cepacia 14427; Burkholderia cepacia, 14427, alone
  MIC: 8 µg/mL
B. cepacia 14429; Burkholderia cepacia, 14429, Concomitant (ME:SM = 1:1)
  MIC: 1 µg/mL
B. cepacia 14429; Burkholderia cepacia, 14429, Concomitant (ME:SM = 1:2)
  MIC: 1 µg/mL
B. cepacia 14429; Burkholderia cepacia, 14429, Concomitant (ME:SM = 1:4)
  MIC: 2 µg/mL
B. cepacia 14429; Burkholderia cepacia, 14429, Concomitant (ME:SM = 2:1)
  MIC: 0.5 µg/mL
B. cepacia 14429; Burkholderia cepacia, 14429, alone
  MIC: 4 µg/mL
B. cepacia 3138; Burkholderia cepacia, 3138, Concomitant (ME:SM = 1:1)
  MIC: 1 µg/mL
B. cepacia 3138; Burkholderia cepacia, 3138, Concomitant (ME:SM = 1:2)
  MIC: 2 µg/mL
B. cepacia 3138; Burkholderia cepacia, 3138, Concomitant (ME:SM = 1:4)
  MIC: 8 µg/mL
B. cepacia 3138; Burkholderia cepacia, 3138, Concomitant (ME:SM = 2:1)
  MIC: 1 µg/mL
B. cepacia 3138; Burkholderia cepacia, 3138, alone
  MIC: 8 µg/mL
B. cepacia 14428; Burkholderia cepacia, 14428, Concomitant (ME:SM = 1:1)
  MIC: 1 µg/mL
B. cepacia 14428; Burkholderia cepacia, 14428, Concomitant (ME:SM = 1:2)
  MIC: 2 µg/mL
B. cepacia 14428; Burkholderia cepacia, 14428, Concomitant (ME:SM = 1:4)
  MIC: 2 µg/mL
B. cepacia 14428; Burkholderia cepacia, 14428, Concomitant (ME:SM = 2:1)
  MIC: 0.5 µg/mL
B. cepacia 14428; Burkholderia cepacia, 14428, alone
  MIC: 8 µg/mL
B. cepacia 7247; Burkholderia cepacia, 7247, Concomitant (ME:SM = 1:1)
  MIC: 2 µg/mL
B. cepacia 7247; Burkholderia cepacia, 7247, Concomitant (ME:SM = 1:2)
  MIC: 4 µg/mL
B. cepacia 7247; Burkholderia cepacia, 7247, Concomitant (ME:SM = 1:4)
  MIC: 8 µg/mL
B. cepacia 7247; Burkholderia cepacia, 7247, Concomitant (ME:SM = 2:1)
  MIC: 1 µg/mL
B. cepacia 7247; Burkholderia cepacia, 7247, alone
  MIC: 16 µg/mL
B. cepacia 14430; Burkholderia cepacia, 14430, Concomitant (ME:SM = 1:1)
  MIC: 1 µg/mL
B. cepacia 14430; Burkholderia cepacia, 14430, Concomitant (ME:SM = 1:2)
  MIC: 2 µg/mL
B. cepacia 14430; Burkholderia cepacia, 14430, Concomitant (ME:SM = 1:4)
  MIC: 8 µg/mL
B. cepacia 14430; Burkholderia cepacia, 14430, Concomitant (ME:SM = 2:1)
  MIC: 1 µg/mL
B. cepacia 14430; Burkholderia cepacia, 14430, alone
  MIC: 8 µg/mL
B. cepacia 257-1; Burkholderia cepacia, 2571, Concomitant (ME:SM = 1:1)
  MIC: 0.5 µg/mL
B. cepacia 257-1; Burkholderia cepacia, 2571, Concomitant (ME:SM = 1:2)
  MIC: 0.5 µg/mL
B. cepacia 257-1; Burkholderia cepacia, 2571, Concomitant (ME:SM = 1:4)
  MIC: 1 µg/mL
B. cepacia 257-1; Burkholderia cepacia, 2571, Concomitant (ME:SM = 2:1)
  MIC: 0.25 µg/mL
B. cepacia 257-1; Burkholderia cepacia, 2571, alone
  MIC: 4 µg/mL
